PubChem BioAssay AID330 (DTP/NCI, 2004)
Several values for one entry are separate records, joined by “and”; a condition that tells them apart may be missing. Equal entries are not always repeated. Toxic doses and inconclusive results are not listed. Rule for the calls: active = survival T/C of 150% or more; inactive = T/C below 125% in these data.

System: P388 leukemia ip, CD2F1 mice, survival T/C
Test: NCI In Vivo Anticancer Drug Screen. Data for tumor model P388 Leukemia (intraperitoneal) in CD2F1 (CDF1) mice
Conditions: endpoint: median survival time, higher = longer survival
Procedure, shortened: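 Mice carrying the transplanted tumor received test compound or vehicle. Survival was recorded in each group, and the value is the treated-group measurement divided by that of the vehicle-treated control group.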

[1] = dose: 50.0 mg/kg/injection, schedule: Q01DX005 (ip), vehicle: saline with Tween-80
[2] = dose: 100.0 mg/kg/injection, schedule: Q01DX005 (ip), vehicle: saline with Tween-80
[3] = dose: 200.0 mg/kg/injection, schedule: Q01DX005 (ip), vehicle: saline with Tween-80
[4] = dose: 50.0 mg/kg/injection, schedule: Q01DX009 (ip), vehicle: saline with Tween-80
[5] = dose: 100.0 mg/kg/injection, schedule: Q01DX009 (ip), vehicle: saline with Tween-80
[6] = dose: 6.25 mg/kg/injection, schedule: Q01DX005 (ip), vehicle: Klucel (hydroxypropylcellulose) (HPC)
[7] = dose: 12.5 mg/kg/injection, schedule: Q01DX005 (ip), vehicle: Klucel (hydroxypropylcellulose) (HPC)
[8] = dose: 50.0 mg/kg/injection, schedule: Q01DX005 (ip), vehicle: Klucel (hydroxypropylcellulose) (HPC)
[9] = dose: 100.0 mg/kg/injection, schedule: Q01DX005 (ip), vehicle: Klucel (hydroxypropylcellulose) (HPC)
[10] = dose: 200.0 mg/kg/injection, schedule: Q01DX005 (ip), vehicle: Klucel (hydroxypropylcellulose) (HPC)
[11] = dose: 60.0 mg/kg/injection, schedule: Q01DX005 (ip), vehicle: saline
[12] = dose: 120.0 mg/kg/injection, schedule: Q01DX005 (ip), vehicle: saline
[13] = dose: 240.0 mg/kg/injection, schedule: Q01DX005 (ip), vehicle: saline

Measured: T/C

COC(=O)c1cc(=O)n(Cc2ccco2)c(=Nc2ccccc2)s1
inactive: [1] 98 % of control | [2] 97 % of control | [3] 94 % of control

O=[N+]([O-])c1ccc(N/N=C\c2c(Cl)[nH]c3ccccc23)cc1
inactive: dose: 100.0 mg/kg/injection, schedule: Q04DX002 (ip), vehicle: saline + alcohol 86 % of control | dose: 200.0 mg/kg/injection, schedule: Q04DX002 (ip), vehicle: saline + alcohol 98 % of control | dose: 400.0 mg/kg/injection, schedule: Q04DX002 (ip), vehicle: saline + alcohol 104 % of control

Cc1ccc(S(=O)(=O)C(Cl)Cl)cc1
inactive: dose: 50.0 mg/kg/injection, schedule: Q04DX003 (ip), vehicle: saline with Tween-80 100 % of control and 90 % of control and 93 % of control | dose: 100.0 mg/kg/injection, schedule: Q04DX003 (ip), vehicle: saline with Tween-80 111 % of control and 118 % of control and 93 % of control | dose: 200.0 mg/kg/injection, schedule: Q04DX003 (ip), vehicle: saline with Tween-80 104 % of control and 93 % of control | dose: 400.0 mg/kg/injection, schedule: Q04DX003 (ip), vehicle: saline with Tween-80 102 % of control

CCCCCC(=O)C(C)(c1nc2nnc(N)n2[nH]c1=O)c1nc2nnc(N)n2[nH]c1=O
inactive: [1] 93 % of control | [2] 93 % of control | [3] 94 % of control

O=C1CCCN1.O=C1CCCN1.[Br][Co][Br]
inactive: dose: 25.0 mg/kg/injection, schedule: Q01DX009 (ip), vehicle: saline with Tween-80 104 % of control | [4] 122 % of control

O=C1OC(OC/C(Br)=C(\Br)COC2OC(=O)C(Cl)=C2Cl)C(Cl)=C1Cl (stereo not given)
inactive: dose: 15.0 mg/kg/injection, schedule: Q01DX005 (ip), vehicle: saline with Tween-80 103 % of control | dose: 30.0 mg/kg/injection, schedule: Q01DX005 (ip), vehicle: saline with Tween-80 103 % of control | dose: 60.0 mg/kg/injection, schedule: Q01DX005 (ip), vehicle: saline with Tween-80 112 % of control

CCOC(=O)NC(C)(C)CN(C(=O)OCC)C(C)C
inactive: dose: 100.0 mg/kg/injection, schedule: Q04DX003 (ip), vehicle: other 95 % of control | dose: 200.0 mg/kg/injection, schedule: Q04DX003 (ip), vehicle: other 100 % of control | dose: 400.0 mg/kg/injection, schedule: Q04DX003 (ip), vehicle: other 95 % of control

S=C(Nc1ccccc1)SSC(Cl)(Cl)Cl
inactive: dose: 12.5 mg/kg/injection, schedule: Q01DX009 (ip), vehicle: saline + Tween-80 + alcohol 93 % of control | dose: 25.0 mg/kg/injection, schedule: Q01DX009 (ip), vehicle: saline + Tween-80 + alcohol 94 % of control | dose: 50.0 mg/kg/injection, schedule: Q01DX009 (ip), vehicle: saline + Tween-80 + alcohol 109 % of control | [4] 117 % of control | [5] 114 % of control

CC1=C(CCCCCCCCCCCCCCC(C)O)C(=O)OC1=O (stereo not given)
inactive: dose: 1.56 mg/kg/injection, schedule: Q01DX005 (ip), vehicle: Klucel (hydroxypropylcellulose) (HPC) 108 % of control | dose: 3.12 mg/kg/injection, schedule: Q01DX005 (ip), vehicle: Klucel (hydroxypropylcellulose) (HPC) 108 % of control | [6] 99 % of control | [7] 99 % of control | [8] 89 % of control | [9] 92 % of control | [10] 101 % of control | dose: 400.0 mg/kg/injection, schedule: Q01DX005 (ip), vehicle: Klucel (hydroxypropylcellulose) (HPC) 87 % of control

C[CH2][Sn]1([CH2]C)[c]2ccccc2Oc2cccc[c]21
inactive: [4] 109 % of control | [5] 109 % of control

CNCC(=O)c1ccc(O)c(O)c1N=O
inactive: dose: 100.0 mg/kg/injection, schedule: Q04DX002 (ip), vehicle: saline with Tween-80 114 % of control | dose: 200.0 mg/kg/injection, schedule: Q04DX002 (ip), vehicle: saline with Tween-80 108 % of control | dose: 400.0 mg/kg/injection, schedule: Q04DX002 (ip), vehicle: saline with Tween-80 108 % of control

O=c1[nH]c(=O)n(C2OC(CF)C(O)C2O)cc1Br (stereo not given)
inactive: [8] 96 % of control | [9] 96 % of control | [10] 98 % of control

CC(C)CC1[NH][Sn]2([NH]C(CC(C)C)C(=O)[O]2)[O]C1=O (stereo not given)
inactive: [6] 104 % of control | [7] 105 % of control | dose: 25.0 mg/kg/injection, schedule: Q01DX005 (ip), vehicle: Klucel (hydroxypropylcellulose) (HPC) 104 % of control

COC(=O)C1(C#N)CC1
inactive: [11] 113 % of control | [12] 96 % of control | [13] 103 % of control

CCN(CC)c1cc(=O)nc2ccccn12
inactive: [11] 100 % of control | [12] 99 % of control | [13] 106 % of control

CC1CCP(=O)(c2ccccc2)C1 (stereo not given)
inactive: dose: 50.0 mg/kg/injection, schedule: Q01DX005 (ip), vehicle: saline 104 % of control | dose: 100.0 mg/kg/injection, schedule: Q01DX005 (ip), vehicle: saline 105 % of control | dose: 200.0 mg/kg/injection, schedule: Q01DX005 (ip), vehicle: saline 105 % of control

CCCCCCCCCCCCC(C(=O)O)C(C)C(=O)O (stereo not given)
inactive: dose: 0.25 mg/kg/injection, schedule: Q01DX009 (ip), vehicle: saline with Tween-80 96 % of control | dose: 0.5 mg/kg/injection, schedule: Q01DX009 (ip), vehicle: saline with Tween-80 102 % of control | dose: 1.0 mg/kg/injection, schedule: Q01DX009 (ip), vehicle: saline with Tween-80 104 % of control

COC(=O)[C@@H]1[C@H]2CC(C)(C)C[C@H]2C2=CCC[C@@H]21
inactive: dose: 18.5 mg/kg/injection, schedule: Q01DX005 (ip), vehicle: suspension in saline 96 % of control | dose: 37.0 mg/kg/injection, schedule: Q01DX005 (ip), vehicle: suspension in saline 98 % of control | dose: 74.0 mg/kg/injection, schedule: Q01DX005 (ip), vehicle: suspension in saline 98 % of control

O=C1c2ccccc2-c2c1c1ccccc1c(=O)n2Cc1ccccc1
inactive: dose: 6.25 mg/kg/injection, schedule: Q01DX005 (ip), vehicle: saline with Tween-80 101 % of control | dose: 12.5 mg/kg/injection, schedule: Q01DX005 (ip), vehicle: saline with Tween-80 101 % of control | dose: 25.0 mg/kg/injection, schedule: Q01DX005 (ip), vehicle: saline with Tween-80 104 % of control

CC(=O)Nc1cccc(OCc2cccc(N3C(N)=NC(N)=NC3(C)C)c2)c1
inactive: dose: 1.56 mg/kg/injection, schedule: Q01DX009 (ip), vehicle: distilled water + Tween-80 99 % of control | dose: 3.12 mg/kg/injection, schedule: Q01DX009 (ip), vehicle: distilled water + Tween-80 99 % of control | dose: 6.25 mg/kg/injection, schedule: Q01DX009 (ip), vehicle: distilled water + Tween-80 105 % of control | dose: 6.25 mg/kg/injection, schedule: Q01DX009 (ip), vehicle: saline 105 % of control | dose: 12.5 mg/kg/injection, schedule: Q01DX009 (ip), vehicle: distilled water + Tween-80 105 % of control | dose: 12.5 mg/kg/injection, schedule: Q01DX009 (ip), vehicle: saline 101 % of control | dose: 25.0 mg/kg/injection, schedule: Q01DX009 (ip), vehicle: saline 117 % of control

CN(C)C(C#C[Si](C)(C)C)C1(O)CCCCC1 (stereo not given)
inactive: dose: 100.0 mg/kg/injection, schedule: Q04DX003 (ip), vehicle: saline 103 % of control | dose: 200.0 mg/kg/injection, schedule: Q04DX003 (ip), vehicle: saline 105 % of control | dose: 400.0 mg/kg/injection, schedule: Q04DX003 (ip), vehicle: saline 103 % of control

O=C(NC(=O)C(F)(F)F)Nc1ccc(Cl)cc1
inactive: [4] 99 % of control | [5] 105 % of control
